Source: the supplement of paper PMC10307832

How the values were obtained:
Assay in all cases: relative viability (nuclei count vs DMSO), 5 days (fraction); higher = more cells survive
XMD8-85 + Luminespib = compound: CN1CCN(CC1)C2=CC(=C(C=C2)NC3=NC=C4C(=N3)N(C5=CC=CC=C5C(=O)N4C)C)OC [XMD8-85] + CCNC(=O)c1noc(-c2cc(C(C)C)c(O)cc2O)c1-c1ccc(CN2CCOCC2)cc1 [Luminespib] (partner 0.01 µM)
Procedure, shortened: (§1)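 One day after seeding in 1536-well plates, lung cancer cell lines were dosed by pin tool. Dosing was either single-drug or a fixed anchor-drug dose plus five library-drug doses (not always all listed) in √10 steps. After 5 days, nuclei were stained in one fix-and-stain step and counted on 4× images, and relative viability is the nuclei count of treated wells over that of vehicle wells, given as the median of duplicate plates.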

XMD8-85 + Crizotinib = compound: CN1CCN(CC1)C2=CC(=C(C=C2)NC3=NC=C4C(=N3)N(C5=CC=CC=C5C(=O)N4C)C)OC [XMD8-85] + C[C@@H](Oc1cc(-c2cnn(C3CCNCC3)c2)cnc1N)c1c(Cl)ccc(F)c1Cl [Crizotinib] (partner 1 µM)
Procedure, shortened: as §1

XMD8-85 + Pemetrexed = compound: CN1CCN(CC1)C2=CC(=C(C=C2)NC3=NC=C4C(=N3)N(C5=CC=CC=C5C(=O)N4C)C)OC [XMD8-85] + Nc1nc2[nH]cc(CCc3ccc(C(=O)N[C@@H](CCC(=O)O)C(=O)O)cc3)c2c(=O)[nH]1 [Pemetrexed] (partner 0.2 µM)
Procedure, shortened: as §1

4EGI-1 + OSI-027 = compound: O=C(O)C(Cc1ccccc1[N+](=O)[O-])=NNc1nc(-c2ccc(Cl)c(Cl)c2)cs1 (mixture of isomers) [4EGI-1] + COc1cccc2cc(-c3nc([C@H]4CC[C@H](C(=O)O)CC4)n4ncnc(N)c34)[nH]c12 [OSI-027] (partner 0.5 µM)
Procedure, shortened: as §1

Cell Line	relative viability (XMD8-85 + Luminespib; first compound 0.08 µM)	relative viability (XMD8-85 + Luminespib; first compound 0.253 µM)	relative viability (XMD8-85 + Luminespib; first compound 0.8 µM)	relative viability (XMD8-85 + Luminespib; first compound 2.53 µM)	relative viability (XMD8-85 + Luminespib; first compound 8 µM)	relative viability (XMD8-85 + Crizotinib; first compound 0.08 µM)	relative viability (XMD8-85 + Crizotinib; first compound 0.253 µM)	relative viability (XMD8-85 + Crizotinib; first compound 0.8 µM)	relative viability (XMD8-85 + Crizotinib; first compound 2.53 µM)	relative viability (XMD8-85 + Crizotinib; first compound 8 µM)	relative viability (XMD8-85 + Pemetrexed; first compound 0.08 µM)	relative viability (XMD8-85 + Pemetrexed; first compound 0.253 µM)	relative viability (XMD8-85 + Pemetrexed; first compound 0.8 µM)	relative viability (XMD8-85 + Pemetrexed; first compound 2.53 µM)	relative viability (XMD8-85 + Pemetrexed; first compound 8 µM)	relative viability (4EGI-1 + OSI-027; first compound 0.5 µM)	relative viability (4EGI-1 + OSI-027; first compound 5 µM)	relative viability (4EGI-1 + OSI-027; first compound 15.81 µM)	relative viability (4EGI-1 + OSI-027; first compound 50 µM)	relative viability (4EGI-1 + OSI-027; first compound 1.581 µM)
NCI-H838	0.234	0.225	0.29	0.389	0.189	0.774	0.808	1.07	0.815	0.292	0.243	0.247	0.249	0.208	0.184	0.419	0.403	0.362	0.218	–
COR-L 105	0.99	0.842	0.645	–	0.272	–	0.807	0.793	0.455	0.255	1.01	1.16	1.21	0.816	0.58	0.937	0.718	0.434	0.535	0.572
HCC-366	–	–	–	–	–	0.388	–	0.586	0.481	0.136	0.147	0.163	0.146	0.129	0.168	0.922	1.13	0.669	0.277	0.742
NCI-H650	0.892	0.862	0.773	0.82	0.639	0.6	0.603	0.712	0.57	0.345	0.944	0.921	1.04	0.852	0.717	0.6	0.565	0.5	0.443	–
NCI-H1299	–	–	–	–	–	0.983	0.962	1.03	0.928	0.601	–	–	–	–	–	–	–	–	–	–
LCLC-97TM1	0.715	0.87	0.833	0.813	0.85	0.321	0.569	0.558	0.456	0.333	0.153	0.17	0.211	0.181	0.189	0.464	0.527	0.482	0.478	0.258
NCI-H1666	1	1.03	0.986	1.04	0.877	0.789	0.917	1.35	1.31	0.705	0.862	0.811	0.83	0.82	0.673	0.841	0.948	0.606	0.433	0.805
NCI-H1993	0.79	0.837	0.929	0.928	0.746	0.783	0.77	0.869	0.944	0.64	0.604	0.572	0.681	0.739	0.563	0.495	0.627	0.611	0.577	0.528
BEN	0.248	0.333	0.851	0.357	0.317	0.744	0.865	–	0.608	0.447	0.811	0.771	0.696	0.735	0.474	0.328	0.324	0.317	0.26	0.281
HCC-827	0.834	0.486	0.756	0.797	0.614	–	0.919	0.942	0.944	0.856	0.284	0.251	0.266	0.254	0.301	0.888	0.796	–	0.719	0.629
HOP-62	0.932	–	0.911	0.762	0.683	1.04	1.07	0.951	0.835	0.724	0.307	0.358	0.349	0.251	0.247	0.878	0.839	0.746	0.483	0.585
NCI-H1355	0.528	0.747	0.697	0.642	0.6	1.16	1.07	1.06	0.989	0.77	1.04	1.02	1.03	1.07	0.976	0.397	0.384	0.291	0.264	0.354
A549	–	–	–	–	–	0.704	0.711	0.872	0.855	0.426	–	–	–	–	–	–	–	–	–	–
A-427	1.06	1.08	1.25	1.1	0.669	0.897	0.934	0.922	1.05	0.56	1.09	1.02	1.08	1.1	0.754	0.604	0.534	0.44	0.152	0.386
NCI-H358	0.303	0.172	0.376	0.339	0.239	0.674	0.465	0.816	0.506	0.248	0.165	0.176	0.175	0.164	0.183	0.778	1.08	0.391	0.106	0.624
NCI-H23	0.207	0.234	0.214	0.199	0.193	0.4	0.434	0.472	0.387	0.217	0.546	0.677	0.607	–	0.4	0.612	0.614	0.453	0.417	–
LXF-289	0.611	0.57	0.584	–	0.4	0.787	0.798	0.809	0.804	0.658	0.856	0.88	0.878	0.949	0.899	0.825	0.758	0.756	0.519	0.809
NCI-H1975	0.398	0.188	0.207	0.236	0.152	1.08	0.827	1.07	0.937	0.352	0.257	0.286	0.305	0.282	0.227	0.837	0.792	0.74	0.391	0.665
